These molecules were tested against Serine/threonine-protein kinase PLK1 (Homo sapiens, UniProt P53350) (assay: Plk1 polo box domain binding inhibitors, dose response, biochemical, fluorescence polarization (AID 877)).
Chain of Serine/threonine-protein kinase PLK1 (P53350 whole entry, the tested form may be a part): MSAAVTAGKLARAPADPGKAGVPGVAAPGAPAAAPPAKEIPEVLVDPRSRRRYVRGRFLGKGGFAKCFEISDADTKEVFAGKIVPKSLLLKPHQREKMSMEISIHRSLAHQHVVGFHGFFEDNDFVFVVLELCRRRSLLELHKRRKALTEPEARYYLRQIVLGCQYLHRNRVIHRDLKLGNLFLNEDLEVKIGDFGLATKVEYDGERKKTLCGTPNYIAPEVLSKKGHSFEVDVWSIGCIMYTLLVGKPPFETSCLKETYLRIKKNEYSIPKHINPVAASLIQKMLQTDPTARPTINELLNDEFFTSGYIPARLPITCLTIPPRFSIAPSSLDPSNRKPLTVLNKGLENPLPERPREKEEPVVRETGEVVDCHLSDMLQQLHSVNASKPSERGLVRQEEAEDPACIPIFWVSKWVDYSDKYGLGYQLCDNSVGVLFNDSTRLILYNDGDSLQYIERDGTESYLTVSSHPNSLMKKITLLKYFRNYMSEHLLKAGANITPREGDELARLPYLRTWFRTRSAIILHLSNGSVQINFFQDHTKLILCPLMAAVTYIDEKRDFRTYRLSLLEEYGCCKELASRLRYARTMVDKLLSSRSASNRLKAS

IC50 [µM]	SMILES
> 50	O=C(NC1(C(F)(F)F)NC(=O)N(CC2CCCCC2)C1=O)c1ccco1 (stereo unspecified) [MLS000040678]
> 50	CCn1ccc(C(=O)Nc2ccc(N(C)C(C)=O)cc2)n1 [MLS000043435]
> 50	Cc1ccccc1NS(=O)(=O)c1cc(C(=O)NCc2ccco2)ccc1C [MLS000052108]
> 50	c1ccc(NCc2nnc3n2CCCCC3)cc1 [MLS000057041]
> 50	CCc1nc2cc(Cl)c(Cl)cc2[nH]1 [MLS000064722]
> 50	COc1ccc(C(C)C)cc1S(=O)(=O)Nc1ccc(Cl)cn1 [MLS000071127]
> 50	O=C1C(=C2C(=O)c3ccccc3C2=O)Nc2ccccc21 [MLS000071738]
> 50	CCC(=O)Nc1ccc(-c2nnc(SCC(=O)Nc3nccs3)n2C)cc1 [MLS000076456]
> 50	CC(C)OCCCNC(=O)c1ccc(NC(=O)C2CCCO2)cc1 (stereo unspecified) [MLS000086701]
> 50	CCOCCCNC(=O)CCCOc1ccccc1 [MLS000088375]
> 50	CC(C)=CC(=O)NCCc1ccccc1 [MLS000089152]
> 50	O=C(COc1ccccc1)Nc1ccc(S(=O)(=O)N2CCOCC2)cc1 [MLS000108227]
> 50	CCC(C)c1ccc(NC(=O)C2CC2)cc1 (stereo unspecified) [MLS000110184]
> 50	O=C(Nc1nc2ccccc2s1)c1cc2c(s1)-c1ccccc1OC2 [MLS000522634]
> 50	Cn1cc(SCC(=O)Nc2ccc3c(c2)OCCO3)c2ccccc21 [MLS000529783]
> 50	CCC(=O)Nc1ccccc1C(=O)NC1CCCCC1 [MLS000538265]
> 50	Cc1[nH]n2c(=O)cc(-c3ccc([N+](=O)[O-])cc3)nc2c1-c1ccccc1 [MLS000547439]
> 50	CCOc1ccccc1N1CCN(C2=C(NS(=O)(=O)c3cccs3)C(=O)c3ccccc3C2=O)CC1 [MLS000551587]
> 50	O=C(NCCc1ccccc1)/C(=C\c1ccc([N+](=O)[O-])cc1)NC(=O)c1ccccc1 [MLS000575866]
> 50	Cc1cccc2[nH]c3c(N4CCN(C(=O)c5ccco5)CC4)ncnc3c12 [SMR000148910]
33.3	NC(=O)C1CCN(C2=C(Cl)C(=O)c3ccccc3C2=O)CC1 [SMR000180199]

More lines, now with the values behind:

SMILES	IC50 [µM]
CCn1cnc2sc(C(=O)N3CCN(c4ccc(OC)cc4)CC3)c(C)c2c1=O [3-ethyl-6-[4-(4-methoxyphenyl)piperazin-1-yl]carbonyl-5-methyl-thieno[2,3-d]pyrimidin-4-one]	> 50
O=C1Nc2ccc([N+](=O)[O-])cc2C1(O)N1CCCCC1 (stereo unspecified) [3-hydroxy-5-nitro-3-(1-piperidinyl)-1,3-dihydro-2H-indol-2-one]	> 50
CC1CN(C2CC(C)(C)NC(C)(C)C2)CCC1=O (stereo unspecified) [3-methyl-1-(2,2,6,6-tetramethyl-4-piperidinyl)-4-piperidinone]	> 50
O=C(NC(NC(=S)Nc1ccc(Cl)cc1Cl)C(Cl)(Cl)Cl)c1cccc([N+](=O)[O-])c1 (stereo unspecified) [3-nitro-N-[2,2,2-trichloro-1-({[(2,4-dichlorophenyl)amino]carbonothioyl}amino)ethyl]benzamide]	> 50
Cc1cccc(C)c1NC1=NC(=S)N(c2ccccc2)C12CCOC(C)(C)C2 (stereo unspecified) [4-(2,6-dimethylanilino)-7,7-dimethyl-1-phenyl-8-oxa-1,3-diazaspiro[4.5]dec-3-ene-2-thione]	> 50
Cc1ccccc1Oc1ncnc2oc(-c3ccccc3)cc12 [4-(2-methylphenoxy)-6-phenyl-furo[2,3-d]pyrimidine]	> 50
Cc1ccc(C(=O)c2c[nH]c(C(=O)NCCCN3CCOCC3)c2)cc1 [4-(4-methylbenzoyl)-N-(3-morpholin-4-ylpropyl)-1H-pyrrole-2-carboxamide]	> 50
CN(C)c1ccc(C(=O)Nc2nc3c(s2)CCCC3)cc1 [4-(dimethylamino)-N-(4,5,6,7-tetrahydro-1,3-benzothiazol-2-yl)benzamide]	> 50
O=C(CN1C(=O)COc2ccccc21)NCc1ccc(C(=O)O)cc1 [4-[[2-(3-oxidanylidene-1,4-benzoxazin-4-yl)ethanoylamino]methyl]benzoic acid]	> 50
CCCc1nc2sc3c(c2c(=O)n1NC(=O)CCC(=O)O)CCCC3 [4-keto-4-[(4-keto-2-propyl-5,6,7,8-tetrahydrobenzothiopheno[2,3-d]pyrimidin-3-yl)amino]butyric acid]	> 50
Cc1ccc(C(=O)Nc2cnc3sc(C)nn3c2=O)cc1 [4-methyl-N-(2-methyl-5-oxidanylidene-[1,3,4]thiadiazolo[3,2-a]pyrimidin-6-yl)benzamide]	> 50
CC1(C)CC(=O)C=C(NCc2ccncc2)C1 [5,5-dimethyl-3-(4-pyridylmethylamino)cyclohex-2-en-1-one]	> 50
CC(C)(C)NC(=O)CC(CC(=O)O)c1ccccc1 (stereo unspecified) [5-(tert-butylamino)-5-keto-3-phenyl-valeric acid]	> 50
C=CCn1c2ccccc2c2nnc(SCc3ccc4nonc4c3)nc21 [5-[(5-prop-2-enyl-[1,2,4]triazino[5,6-b]indol-3-yl)sulfanylmethyl]-2,1,3-benzoxadiazole]	> 50
O=C(CNS(=O)(=O)c1ccc(Br)s1)N1CCCC1 [5-bromanyl-N-(2-oxidanylidene-2-pyrrolidin-1-yl-ethyl)thiophene-2-sulfonamide]	> 50
Cc1ccc(NC(=O)C2CC=CCC2C(=O)N2CCCCC2)cc1 (stereo unspecified) [6-(Piperidine-1-carbonyl)-cyclohex-3-enecarboxylic acid p-tolylamide]	> 50
COc1ccc2c3c(cccc13)NN=C2C [6-Methoxy-3-methyl-1H-benzo[de]cinnoline]	> 50
Cc1ccc(Cl)cc1N1CCN(S(=O)(=O)c2ccc3c(c2)oc(=O)n3C)CC1 [6-[4-(5-chloranyl-2-methyl-phenyl)piperazin-1-yl]sulfonyl-3-methyl-1,3-benzoxazol-2-one]	> 50
CC(C)Nc1nnc(SCC(=O)c2c(N)n(Cc3ccccc3)c(=O)n(C)c2=O)s1 [6-amino-1-benzyl-3-methyl-5-[2-[[5-(propan-2-ylamino)-1,3,4-thiadiazol-2-yl]sulfanyl]acetyl]pyrimidine-2,4-dione]	> 50
O=C1CCN2C=Nc3cccc4ccc1c2c34 [7,8-dihydro-9H-pyrido[1,2,3-cd]perimidin-9-one]	25.1

SMILES	IC50 [µM]
CCOC(=O)c1c2c(n(C)c1C)C(=O)C(=O)c1ccc(Br)cc1-2 [8-bromo-2,3-dimethyl-4,5-dioxo-1-benzo[e]indolecarboxylic acid ethyl ester]	10.4
Oc1ccc2ccc3cccc[n+]3c2c1 [9-benzo[c]quinolizin-11-iumol;iodide]	8.73
COc1ccc(N(C)C2=NS(=O)(=O)c3ccccc32)cc1 [(1,1-Dioxo-1H-1lambda*6*-benzo[d]isothiazol-3-yl)-(4-methoxy-phenyl)-methyl-amine]	> 50
CC1Cc2ccccc2N1C(=O)c1ccc2c(c1)nnn2C (stereo unspecified) [(1-methyl-5-benzotriazolyl)-(2-methyl-2,3-dihydroindol-1-yl)methanone]	> 50
COc1cccc(OC)c1C(=O)N1CCN(c2ccccn2)CC1 [(2,6-dimethoxyphenyl)-(4-pyridin-2-ylpiperazin-1-yl)methanone]	> 50
O=[N+]([O-])c1ccc(N2CCNCC2)cc1NCC1CCCO1 (stereo unspecified) [(2-nitro-5-piperazino-phenyl)-(tetrahydrofurfuryl)amine]	> 50
CCOC(=O)Cc1csc(NC(=O)CSc2nnc(-c3ccc(F)cc3)o2)n1 [(2-{2-[5-(4-Fluoro-phenyl)-[1,3,4]oxadiazol-2-ylsulfanyl]-acetylamino}-thiazol-4-yl)-acetic acid ethyl ester]	> 50
CCc1noc(C)c1C(=O)N1CCOCC1 [(3-ethyl-5-methyl-1,2-oxazol-4-yl)-morpholin-4-yl-methanone]	> 50
CC1Cn2c(nnc2-c2cc3ccccc3cc2O)S1 (stereo unspecified) [(3E)-3-(6-methyl-5,6-dihydro-2H-[1,3]thiazolo[2,3-c][1,2,4]triazol-3-ylidene)naphthalen-2-one]	> 50
COc1ccc2c(c1OC)C(=O)OC2CC(=O)O (stereo unspecified) [(4,5-dimethoxy-3-oxo-1,3-dihydro-2-benzofuran-1-yl)acetic acid]	> 50
Nc1cc2nsnc2cc1Br [(6-bromopiazthiol-5-yl)amine]	40.8
OCC(CO)(CO)N=Cc1cc(Br)ccc1O [(6E)-4-bromanyl-6-[[[2-(hydroxymethyl)-1,3-bis(oxidanyl)propan-2-yl]amino]methylidene]cyclohexa-2,4-dien-1-one]	> 50
C/C(=C\C(=O)Nc1cc(C)on1)c1ccccc1 [(E)-N-(5-methyl-1,2-oxazol-3-yl)-3-phenyl-but-2-enamide]	> 50
CCC(=O)N1CCN(c2ccc(NC(=O)c3ccc4c(c3)OCO4)cc2)CC1 [Benzo[1,3]dioxole-5-carboxylic acid [4-(4-propionyl-piperazin-1-yl)-phenyl]-amide]	> 50
O=C(NC1(O)C(=O)c2ccccc2C1=O)c1ccccc1 [N-(2-hydroxy-1,3-dioxo-2-indenyl)benzamide]	> 50
CC(=O)N(N=C1Sc2ccccc2C1=O)c1ccccc1C [N-(2-methylphenyl)-N-[(3-oxo-1-benzothiophen-2-ylidene)amino]acetamide]	37.3
CC(=O)N(N=C1Sc2ccccc2C1=O)c1cccc(C)c1 [N-(3-methylphenyl)-N-[(3-oxidanylidene-1-benzothiophen-2-ylidene)amino]ethanamide]	32.9
CC(C)N(Cc1cc2ccccc2[nH]c1=O)C(=O)c1cccnc1 [N-[(2-oxo-1H-quinolin-3-yl)methyl]-N-propan-2-ylpyridine-3-carboxamide]	> 50
CC(=O)N(N=C1Sc2ccccc2C1=O)c1ccccc1 [N-[(Z)-(3-ketobenzothiophen-2-ylidene)amino]-N-phenyl-acetamide]	> 50
COC(=O)c1ccccc1NC1=CC(=NS(=O)(=O)c2cccs2)c2ccccc2C1=O [methyl 2-[[(4E)-1-oxidanylidene-4-thiophen-2-ylsulfonylimino-naphthalen-2-yl]amino]benzoate]	> 50

From BindingDB's records for doi:10.7270/Q2T72FVT (University of Pittsburgh, 2007)
